Source: patent publication US20260083701A1, “COMPOSITIONS, FORMULATIONS, AND METHODS FOR TREATMENT OF INFLAMMATORY CONDITIONS” (Oddity Labs, LLC, priority 2023, published 2026)

Legend:
[1] = tested on: IL-4; test: Functional Th2-blocking activity: IL-4 expression in primary human Th2 cells (intracellular flow cytometry); format: cell-based; details: for % Normalized Reduction of Cytokine Expression From Baseline in CD4+ T Cells IL-4: normalized against vehicle control (water), 3 days co-culture, PMA/ionomycin 6 hours; for % Normalized Reduction of Cytokine Expression From Baseline in CD4+ T Cells IL-4 / Expression of Cytokine following Stimulation (% X Positive among CD4+ T cells) IL-4: primary human CD4+ Th2 cells; for Expression of Cytokine following Stimulation (% X Positive among CD4+ T cells) IL-4: 3 days co-culture with compound, PMA/ionomycin stimulation 6 hours
From the text: (§1) To produce T helper 2 (Th2) cells, peripheral blood mononuclear cells (PBMCs) were harvested from healthy donor leukopaks using Ficoll gradients. Naive CD4+ T cells were further isolated, then activated using TransAct or Dynabeads (depending on the donor). CD4+ T cells were activated for two days in the presence of low dose IL-2 (30 IU/mL) in X-VIVO-15 media containing 5% human AB serum (activation cycle). On the second day, the media was exchanged and supplemented with interleukin 4 (IL-4) (20 ng/mL), anti-IFN-gamma antibody (1 μg/mL), and interleukin 2 (IL-2) (rest cycle). The cells were cultured for an additional five days then evaluated for Prostaglandin D2 receptor 2 (DP2 or CRTH2) expression and IL-4 and interleukin 13 (IL-13) expression following phorbol myristate acetate (PMA)/ionomycin stimulation. If the expression of CRTH2 was >50%, the cells were frozen and used in Th2 IL-4/IL-13 bioactivity assays. If the expression of CRTH2 <50%, then the cells were restimulated using TransAct (or Dynabeads) and maintained on similar cycles of activation (2 days) and rest (5 days), until the expression of CRTH2 exceeded 50%. Typically, no more than 4 cycles are needed before the Th2 cells may be harvested and frozen.
(§2) For testing the ability of a compound or salt of the present disclosure to reduce the expression of IL-4 and IL-13 was tested in primary human Th2 cells, the abovementioned cells were thawed, then cultured for one day in IL-2 containing media. The Th2 cells were treated with compounds added at varying concentrations for three days, after which, the cells were washed, and stimulated with PMA/ionomycin for 6 hrs prior to readabout via intracellular flow cytometry.
(§3) The ability of a compound or salt of the present disclosure to reduce the expression of IL-4 and IL-13 was tested in primary human Th2 cells. Naive, primary human CD4+ T cells were isolated from healthy donors and differentiated into Th2 cells using a combination of IL-4 cytokine and anti-IFN-gamma antibody, based on a modified protocol from Scott et al (Activation of Th2 cells downregulates CRTh2 through an NFAT1 mediated mechanism. PLoS One. 2018 Jul. 3; 13(7):e0199156). Th2 cells were CRTH2+ and expressed IL-4 and IL-13 following PMA/ionomycin stimulation. Prior to PMA/ionomycin stimulation, Th2 cells were co-cultured with a compound or salt of the present disclosure for 3 days and then stimulated for 6 hours. Intracellular flow cytometry was performed to investigate the expression of IL-4 and IL-13 among stimulated CD4+ Th2 cells. The compound or salt was evaluated across a 2-log concentration range. Th2 cells were cultured in X-VIVO-15 media with human AB serum and supplemented with low dose IL-2 (30 IU/mL). The antibody panel that was used is listed below. All antibodies were obtained from Biolegend.
(§4) Description of Calculation for: (1) Expression of Cytokine following Stimulation (% X Positive among CD4+ T cells), and (2) % Normalized Reduction of Cytokine Expression From Baseline in CD4+ T Cells
(§5) The expression of IL-4 and IL-13 was measured based on positive gated fractions among CD4+ Th2 cells. The number is expressed as a positive percentage, determined based on the fluorescence-minus-one (FMO) control. The max percent is 100%. The normalized reduction value uses the vehicle control (water) to normalize against using the following percent change formula. (Cmpd: compound)

[2] = tested on: IL-13; test: Functional Th2-blocking activity: IL-13 expression in primary human Th2 cells (intracellular flow cytometry); format: cell-based; details: for Expression of Cytokine following Stimulation (% X Positive among CD4+ T cells) IL-13: 3 days co-culture with compound, PMA/ionomycin stimulation 6 hours; for % Normalized Reduction of Cytokine Expression From Baseline in CD4+ T Cells IL-13: normalized against vehicle control (water), 3 days co-culture, PMA/ionomycin 6 hours
From the text: as §1, §2, §3, §4, §5

[3] = tested on: IL-4 receptor signaling; test: IL-4 signaling inhibition in HEK-Blue IL-4/IL-13 cells; format: cell-based, human; details: HEK-Blue IL-4/IL-13 cells stimulated with 1.25 ng/mL IL-4, co-culture with varying concentrations for 24 hours
Protocol: HEK-Blue IL-4/IL-13 cells are used to evaluate IL-4/IL-4R-alpha binding. HEK-Blue IL-4/IL-13 have been engineered to produce secreted alkaline phosphatase (SEAP) when exposed to IL-4 or IL-13 and have been previously used to identify IL-4 and IL-4R inhibitors. Compounds are tested with these cells at various dosages to evaluate dose dependent changes in IL-4/IL-4R-alpha binding inhibition. Full EC50 curves are generated for Tier1 compounds.
In the experiment, engineered HEK-Blue™ IL-4/IL-13 cells were stimulated with a dose of 1.25 ng/mL of IL-4 and then subjected to co-culture with varying concentrations of the compounds for a period of 24 hours. […] The provided data represent the mean±standard deviation of six technical replicates carried out across two experimental replicates.

| Compound | Th2 activity [1] | % Normalized Reduction of Cytokine Expression From Baseline in CD4+ T Cells IL-4 [1] | Expression of Cytokine following Stimulation (% X Positive among CD4+ T cells) IL-4 [1] | Expression of Cytokine following Stimulation (% X Positive among CD4+ T cells) IL-13 [2] | % Normalized Reduction of Cytokine Expression From Baseline in CD4+ T Cells IL-13 [2] | IL-4 signaling inhibition [3] |
| --- | --- | --- | --- | --- | --- | --- |
| O=C(Nc1cccc(Cn2nc3ccccn3c2=O)c1)c1c[nH]n2c1nc(=O)c1ccccc12 [II-2, 5-oxo-N-(3-((3-oxo-[1,2,4]triazolo[4,3-a]pyridin-2(3H)-yl)methyl)phenyl)-1,5-dihydropyrazolo[1,5-a]quinazoline-3-carboxamide] | suppressed Th2 activity | B (B represents 15% to less than 20%) | B (B represents 30% to less than 35%) | B (B represents 10% to less than 14%) | D (D represents 50% or greater) | exception |
| O=C(Nc1cccc(S(=O)(=O)NC2=NCCC2)c1)c1ccc(OCc2ccccc2)cc1 [III-1, 4-(benzyloxy)-N-{3-[(3,4-dihydro-2H-pyrrol-5-yl)sulfamoyl]phenyl}benzamide] | – | D (D represents 25% or greater) | A (A represents 0% to less than 30%) | B (B represents 10% to less than 14%) | D (D represents 50% or greater) | prominent IL-4 signaling inhibition |
